According to patent US8673969B2, “Substituted 4-β-acrylamidopodophyllotoxin congeners as antitumour antibiotics and the process for preparation thereof” (Council of Scientific & Industrial Research, priority 2010, dated 2014):
Read-outs that look alike come from different tables or passages of the source.

Columns and labels:
Hop62 = experiment: SRB assay, lung cancer cell line Hop62; assay type: cell-based; settings: Homo sapiens, read-out: In vitro anticancer activity GI50, Lung Hop62
Description: (§1) Single cell suspension of the tumour cells grown in tissue culture were made, cells counted and cell count adjusted to 1×10^5 to 5×10^5 cells/ml. Ninety six (96) well plates were seeded with this cell suspension, each well receiving 100 μl of it. The plate was then be incubated at 37° C. temperature in CO2 incubator for 24 hours. Drugs were added at concentrations after 24-hour incubation followed by further incubation for 48 hours. Experiment was terminated by gently layering the cells in the wells with 30% TCA and plates were kept in refrigerator for 1 hour following which they were washed thoroughly with tap water, dried attained with 0.4% SRB in 1% acetic aid and finally, the bound SRB eluted with 10 mM tris. Absorbance was read at 540 nm, in the microtitre-plate reader. Optical density of drug-treated cells was compared with that of control cells and cell inhibition was calculated as percent values. Each compound was tested at 10, 20, 40 and 80 μg/ml in triplicate on human malignant cell lines.

DWD = experiment: SRB assay, oral cancer cell line DWD; assay type: cell-based; settings: Homo sapiens, read-out: In vitro anticancer activity GI50, Oral DWD
Description: as §1

KB = experiment: SRB assay, oral cancer cell line KB; assay type: cell-based; settings: Homo sapiens, read-out: In vitro anticancer activity GI50, Oral KB
Description: as §1

A-549 = experiment: SRB assay, lung cancer cell line A-549; assay type: cell-based; settings: Homo sapiens, read-out: In vitro anticancer activity GI50, Lung A-549
Description: as §1

Gurav = experiment: SRB assay, oral cancer cell line Gurav; assay type: cell-based; settings: Homo sapiens, read-out: In vitro anticancer activity GI50, Oral Gurav
Description: as §1

MCF7 = experiment: SRB assay, breast cancer cell line MCF7; assay type: cell-based; settings: Homo sapiens, read-out: In vitro anticancer activity GI50, Breast MCF7
Description: as §1

A-2780 = experiment: SRB assay, ovarian cancer cell line A-2780; assay type: cell-based; settings: Homo sapiens, read-out: In vitro anticancer activity GI50, Ovarian A-2780
Description: as §1

Colo205 = experiment: SRB assay, colon cancer cell line Colo205; assay type: cell-based; settings: Homo sapiens, read-out: In vitro anticancer activity GI50, Colon Colo205
Description: as §1

Zr-75-1 = experiment: SRB assay, breast cancer cell line Zr-75-1; assay type: cell-based; settings: Homo sapiens, read-out: In vitro anticancer activity GI50, Breast Zr-75-1
Description: as §1

[1] = SRB assay, 48 hours drug exposure

| GI50 (Hop62; HOP-62, SRB assay, 48 hours drug exposure) | GI50 (DWD; [1]) | GI50 (KB; [1]) | GI50 (A-549; A549, SRB assay, 48 hours drug exposure) | GI50 (Gurav; [1]) | GI50 (MCF7; MCF7, SRB assay, 48 hours drug exposure) | GI50 (A-2780; A2780, SRB assay, 48 hours drug exposure) | GI50 (Colo205; COLO 205, SRB assay, 48 hours drug exposure) | GI50 (Zr-75-1; ZR-75-1, SRB assay, 48 hours drug exposure) | SMILES | GI50 (Hop62; HOP-62, 48 h) | GI50 (A-549; A549, 48 h) | melting point | GI50 (Gurav; 48 h) | GI50 (Zr-75-1; ZR-75-1, 48 h) | GI50 (DWD; 48 h) | GI50 (KB; 48 h) | GI50 (MCF7; MCF7, 48 h) | GI50 (A-2780; A2780, 48 h) | GI50 (Colo205; COLO 205, 48 h) |
| --- | --- | --- | --- | --- | --- | --- | --- | --- | --- | --- | --- | --- | --- | --- | --- | --- | --- | --- | --- |
| 150 nM | 100 nM | 130 nM | < 100 nM | < 100 nM | 130 nM | < 100 nM | < 100 nM | 110 nM | COc1cccc2c1C(=O)c1c(O)c3c(c(O)c1C2=O)C[C@@](O)(C(=O)CO)C[C@@H]3O[C@H]1C[C@H](N)[C@H](O)[C@H](C)O1 [ADR, adriamycin, reference compound] | – | – | – | – | – | – | – | – | – | – |
| – | – | – | – | – | – | – | – | – | COc1cc(/C=C(/C(=O)N[C@@H]2c3cc4c(cc3[C@@H](c3cc(OC)c(OC)c(OC)c3)[C@H]3C(=O)OC[C@@H]32)OCO4)c2cc(OC)c(OC)c(OC)c2)ccc1O [Compound 3a, 4β-(E)-3-(4-hydroxy-3-methoxyphenyl)-2-(3,4,5-trimethoxyphenyl)acrylamidopodophyllotoxin] | 2500 nM | 2400 nM | 134 to 137 °C | – | – | – | – | – | – | – |
| – | – | – | – | – | – | – | – | – | COc1ccc(/C=C(/C(=O)N[C@@H]2c3cc4c(cc3[C@@H](c3cc(OC)c(OC)c(OC)c3)[C@H]3C(=O)OC[C@@H]32)OCO4)c2cc(OC)c(OC)c(OC)c2)cc1O [Compound 3b, 4β-(E)-3-(3-hydroxy-4-methoxyphenyl)-2-(3,4,5-trimethoxyphenyl)acrylamido podophyllotoxin] | 2900 nM | 2900 nM | 145 to 147 °C | – | – | – | – | – | – | – |
| – | – | – | – | – | – | – | – | – | COc1cc(/C=C(/C(=O)N[C@@H]2c3cc4c(cc3[C@@H](c3cc(OC)c(OC)c(OC)c3)[C@H]3C(=O)OC[C@@H]32)OCO4)c2cc(OC)c(OC)c(OC)c2)ccc1F [Compound 3c, 4β-(E)-3-(4-fluoro-3-methoxyphenyl)-2-(3,4,5-trimethoxyphenyl)acrylamidopodophyllotoxin] | 2500 nM | – | 144 to 146 °C | 2400 nM | 2200 nM | – | – | – | – | – |
| – | – | – | – | – | – | – | – | – | COc1ccc(F)c(/C=C(/C(=O)N[C@@H]2c3cc4c(cc3[C@@H](c3cc(OC)c(OC)c(OC)c3)[C@H]3C(=O)OC[C@@H]32)OCO4)c2cc(OC)c(OC)c(OC)c2)c1 [Compound 3e, 4β-(E)-3-(2-fluoro-5-methoxyphenyl)-2-(3,4,5-trimethoxyphenyl)acrylamidopodophyllotoxin] | – | – | 123 to 126 °C | 2500 nM | 2700 nM | – | – | – | – | – |
| – | – | – | – | – | – | – | – | – | COc1ccc(/C=C(/C(=O)N[C@@H]2c3cc4c(cc3[C@@H](c3cc(OC)c(OC)c(OC)c3)[C@H]3C(=O)OC[C@@H]32)OCO4)c2cc(OC)c(OC)c(OC)c2)c(F)c1 [Compound 3f, 4β-(E)-3-(2-fluoro-4-methoxyphenyl)-2-(3,4,5-trimethoxyphenyl)acrylamidopodophyllotoxin] | 170 nM | 2100 nM | 123 to 125 °C | 180 nM | 2500 nM | 190 nM | 2600 nM | 2400 nM | 2700 nM | – |
| – | – | – | – | – | – | – | – | – | COc1cc(/C(=C\c2ccc(O)c([N+](=O)[O-])c2)C(=O)N[C@@H]2c3cc4c(cc3[C@@H](c3cc(OC)c(OC)c(OC)c3)[C@H]3C(=O)OC[C@@H]32)OCO4)cc(OC)c1OC [Compound 3g, 4β-(E)-3-(4-hydroxy-3-nitrophenyl)-2-(3,4,5-trimethoxyphenyl)acrylamidopodophyllotoxin] | 190 nM | – | – | 190 nM | 180 nM | < 100 nM | 2200 nM | 2700 nM | 2200 nM | 2000 nM |
| – | – | – | – | – | – | – | – | – | COc1ccc(/C=C(/C(=O)N[C@@H]2c3cc4c(cc3[C@@H](c3cc(OC)c(OC)c(OC)c3)[C@H]3C(=O)OC[C@@H]32)OCO4)c2cc(OC)c(OC)c(OC)c2)cc1[N+](=O)[O-] [Compound 3h, 4β-(E)-3-(4-methoxy-3-nitrophenyl)-2-(3,4,5-trimethoxyphenyl)acrylamidopodophyllotoxin] | 2300 nM | – | 140 to 143 °C | 2600 nM | 2200 nM | 2900 nM | – | – | 2500 nM | 2700 nM |
| – | – | – | – | – | – | – | – | – | COc1cc(/C(=C\c2ccc([N+](=O)[O-])cc2)C(=O)N[C@@H]2c3cc4c(cc3[C@@H](c3cc(OC)c(OC)c(OC)c3)[C@H]3C(=O)OC[C@@H]32)OCO4)cc(OC)c1OC [Compound 3i, 4β-(E)-3-(4-nitrophenyl)-2-(3,4,5-trimethoxyphenyl)acrylamidopodophyllotoxin] | 2700 nM | – | 187 to 190 °C | 2100 nM | 2200 nM | 2400 nM | – | – | 2600 nM | 2100 nM |
| – | – | – | – | – | – | – | – | – | COc1cc(/C(=C\c2cccc([N+](=O)[O-])c2)C(=O)N[C@@H]2c3cc4c(cc3[C@@H](c3cc(OC)c(OC)c(OC)c3)[C@H]3C(=O)OC[C@@H]32)OCO4)cc(OC)c1OC [Compound 3j, 4β-(E)-3-(3-nitrophenyl)-2-(3,4,5-trimethoxyphenyl)acrylamido podophyllotoxin] | 170 nM | 2400 nM | 181 to 184 °C | 2100 nM | – | < 100 nM | – | 2700 nM | 2500 nM | – |
| – | – | – | – | – | – | – | – | – | COc1cc(/C(=C\c2ccccc2[N+](=O)[O-])C(=O)N[C@@H]2c3cc4c(cc3[C@@H](c3cc(OC)c(OC)c(OC)c3)[C@H]3C(=O)OC[C@@H]32)OCO4)cc(OC)c1OC [Compound 3k, 4β-(E)-3-(2-nitrophenyl)-2-(3,4,5-trimethoxyphenyl)acrylamidopodophyllotoxin] | 2700 nM | 2500 nM | 197 to 200 °C | – | 2500 nM | – | 2700 nM | – | 2300 nM | – |
| – | – | – | – | – | – | – | – | – | COc1ccccc1/C(=C\c1ccc([N+](=O)[O-])cc1)C(=O)N[C@@H]1c2cc3c(cc2[C@@H](c2cc(OC)c(OC)c(OC)c2)[C@H]2C(=O)OC[C@@H]21)OCO3 [Compound 3l, 4β-(E)-2-(2-methoxyphenyl)-3-(4-nitrophenyl)acrylamidopodophyllotoxin] | 2000 nM | < 100 nM | 181 to 183 °C | 2100 nM | 2100 nM | 2300 nM | 2400 nM | 2700 nM | 2300 nM | – |
| – | – | – | – | – | – | – | – | – | COc1ccccc1/C(=C\c1ccccc1[N+](=O)[O-])C(=O)N[C@@H]1c2cc3c(cc2[C@@H](c2cc(OC)c(OC)c(OC)c2)[C@H]2C(=O)OC[C@@H]21)OCO3 [Compound 3m, 4β-(E)-2-(2-methoxyphenyl)-3-(2-nitrophenyl)acrylamidopodophyllotoxin] | 2100 nM | < 100 nM | 187 to 190 °C | 2200 nM | 2200 nM | 2300 nM | 2500 nM | 2800 nM | 2200 nM | – |
| – | – | – | – | – | – | – | – | – | COc1ccc(/C=C(/C(=O)N[C@@H]2c3cc4c(cc3[C@@H](c3cc(OC)c(OC)c(OC)c3)[C@H]3C(=O)OC[C@@H]32)OCO4)c2cc(OC)c(OC)c(OC)c2)cc1 [Compound 3n, 4β-(E)-3-(4-methoxyphenyl)-2-(3,4,5-trimethoxyphenyl)acrylamidopodophyllotoxin] | – | – | 128 to 130 °C | 2200 nM | 2900 nM | 2300 nM | – | 2900 nM | 2500 nM | 170 nM |
| – | – | – | – | – | – | – | – | – | COc1cccc(/C=C(/C(=O)N[C@@H]2c3cc4c(cc3[C@@H](c3cc(OC)c(OC)c(OC)c3)[C@H]3C(=O)OC[C@@H]32)OCO4)c2cc(OC)c(OC)c(OC)c2)c1 [Compound 3o, 4β-(E)-3-(3-methoxyphenyl)-2-(3,4,5-trimethoxyphenyl)acrylamidopodophyllotoxin] | 180 nM | < 100 nM | 187 to 190 °C | 2100 nM | 180 nM | 2200 nM | 2100 nM | 2700 nM | < 100 nM | – |
| – | – | – | – | – | – | – | – | – | COc1cc(/C(=C\c2ccc(O)cc2)C(=O)N[C@@H]2c3cc4c(cc3[C@@H](c3cc(OC)c(OC)c(OC)c3)[C@H]3C(=O)OC[C@@H]32)OCO4)cc(OC)c1OC [Compound 3p, 4β-(E)-3-(4-hydroxyphenyl)-2-(3,4,5-trimethoxyphenyl)acrylamidopodophyllotoxin] | 2600 nM | 2300 nM | 137 to 140 °C | 2700 nM | 2700 nM | 2700 nM | 2600 nM | – | – | – |
